Experiments:
macrophage Gpr132 = molecular target: T1, macrophage Gpr132 (Mus musculus, UniProt Q9Z282); test: Gpr132 co-immunoprecipitation with LC-MS quantification of lactate; assay type: binding; settings: lactate of <3 kDa EO771 CM, BMDM lysate
T1 construct: endogenous in cells; host or cells: bone marrow-derived macrophages (BMDMs) from WT C57BL/6 mice; Gpr132-KO BMDMs served as negative control
T1 sequence (Q9Z282 1-382): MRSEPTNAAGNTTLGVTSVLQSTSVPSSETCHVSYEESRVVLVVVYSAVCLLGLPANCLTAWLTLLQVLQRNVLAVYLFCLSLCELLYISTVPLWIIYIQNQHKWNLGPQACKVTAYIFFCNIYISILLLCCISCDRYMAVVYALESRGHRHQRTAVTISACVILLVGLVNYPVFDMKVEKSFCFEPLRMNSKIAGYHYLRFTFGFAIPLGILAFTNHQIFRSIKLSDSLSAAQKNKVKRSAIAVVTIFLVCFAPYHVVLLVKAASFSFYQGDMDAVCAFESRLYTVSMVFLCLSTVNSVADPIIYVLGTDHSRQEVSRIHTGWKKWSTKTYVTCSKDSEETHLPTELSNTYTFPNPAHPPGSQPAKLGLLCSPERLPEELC
Experimental: To determine whether lactate in the <3 kDa fraction of EO771 CM could bind to macrophage Gpr132, co-immunoprecipitation with anti-Gpr132 in WT and Gpr132-KO BMDMs was performed. Lactate pulled down by Gpr132 was quantified by liquid chromatography-mass spectrometry (LC-MS).
WT or Gpr132-KO BMDM lysate was incubated with concentrated <3 kDa EO771 CM for 4 hrs. This mixture of 1 ml volume was then incubated with 10 μl anti-Gpr132 antibody and 40 μl protein A/G plus-agarose beads overnight at 4° C. After the beads were washed, the IP eluent was collected for lactate quantification. Lactate was extracted and analyzed as reported (7). Briefly, 400 μl of cold MeOH was added to 100 μl of the IP eluent. Samples were mixed and then stored at −80° C. overnight. The next morning, samples were spun at 14,000 g for 10 min, and the supernatant was collected. After drying the supernatant via speedvac, the extract was dissolved in H2O (40 μl) and a portion of this sample (10 μl) analyzed by LC-MS. Lactate was measured using a TSQ Quantiva LC-MS instrument fitted with a Luna NH2 HPLC column ([…], 4.6 mm×100 mm, Phenomenex). The following LC solvents were used: buffer A, 95:5 H2O/ACN, 20 mM ammonium hydroxide, 20 mM ammonium acetate; buffer B, 100% ACN. […] Relative abundance of lactate was determined by measuring the lactate peak area.

Gpr132 = test: calcium mobilization assay in BMDMs; assay type: cell-based, mouse; settings: WT or Gpr132-KO BMDMs stimulated with 25 mM
Experimental: FIG. 27. […] WT or Gpr132-KO BMDMs were stimulated with 25 mM lactate (Left) or HCl (Right) (n=3).
To determine whether Gpr132 is required for lactate signaling in macrophages, a calcium mobilization assay was performed. […] First, lactate levels in the CM of distinct cancer cell lines were measured using a Vitros 250 chemistry analyzer. […] Second, the effects of blocking lactate production from EO771 and 4T1.2 cells by oxamic acid, an inhibitor of lactate dehydrogenase was tested.

[1] = tested on: bone marrow derived macrophages (BMDMs); test: macrophage M2-like morphology (elongation); assay type: cell-based, mouse; settings: WT BMDMs, exogenous lactate added
Excerpt: FIGS. 9A-9D. Tumor-derived factors activate M2-like macrophages via Gpr132. (FIG. 9A) The pH values of conditioned media (CM) from cancer cells or macrophages (n=5-8); *p<0.05, ****p<0.001 compared with RAW 264.7 macrophage CM. (FIG. 9B) Western blot for CD206 and Gpr132 in RAW 264.7 macrophages after treatment with indicated cancer cell CM for 24 hrs. Actin was used as a loading control. The CD206/actin or Gpr132/actin ratio was quantified and shown as fold changes compared to control (n=3); *p<0.05, ***p<0.005 compared with control. (FIG. 9C) Flow cytometry analysis of Gpr132 and CD206 in BMDMs with or without EO771 CM treatment. The experiments were repeated twice and the representative results are shown. (FIG. 9D) Immunofluorescence staining for CD11b in WT and Gpr132-KO BMDMs after differentiation in the absence or presence of 30% EO771 CM or 4T1.2 CM for 7 days. Elongated macrophage morphology indicates a M2-like phenotype. Nuclei were stained with DAPI. Scale bar, 25 μm. WT, wild-type; Gpr132-KO, Gpr132 knockout.
FIGS. 10A-10F. […] LC-MS was used to quantify lactate in the eluent of Gpr132 co-IP. (Left) Representative LC-MS chromatograms; (Right) Quantification of relative lactate binding (n=3). ****p<0.001 compared with WT. […] CD206/actin ratio was quantified and shown as fold changes compared to control (n=3-4); *p<0.05 compared with WT control. […]

lactate enrichment in Gpr132 co-IP eluent, WT vs Gpr132-KO macrophages (macrophage Gpr132): 7.1 fold
Structure (SMILES): CC(O)C(=O)O (stereo not drawn) [lactate]
effect of Gpr132 deletion on triggered calcium mobilization (Gpr132): compromised
rescue of M2-like morphology by addition to CM of oxamic acid-treated cells [1]: restored
